Measurements reported in US20210253598A1, “ARYL ANNULATED MACROCYCLIC INDOLE DERIVATIVES” (priority 2017, published 2021).
pIC50, pKd: −log10 of the molar value. Where “and” joins values, the source holds several entries; their conditions need not be identical. Equal entries are not always repeated. Structures can show the parent of a compound that is named as a salt. Where two headings read alike, the source gives them in different places.

Experiments:
[1] = target: T1, MCL1 protein (Homo sapiens, UniProt Q07820); assay: PIxEL: protein-protein interaction in permeabilized cells by ELISA (Assay 5); format: cell-based; conditions: permeabilized RKO cells, biotin-BIM BH3 peptide 0.2 μM, serum free
T1 construct: this assay uses full length endogenous MCL1 protein at mitochondria outer membrane; endogenous in cells; host or cells: RKO colon cancer cell line
T1 sequence (Q07820 whole entry): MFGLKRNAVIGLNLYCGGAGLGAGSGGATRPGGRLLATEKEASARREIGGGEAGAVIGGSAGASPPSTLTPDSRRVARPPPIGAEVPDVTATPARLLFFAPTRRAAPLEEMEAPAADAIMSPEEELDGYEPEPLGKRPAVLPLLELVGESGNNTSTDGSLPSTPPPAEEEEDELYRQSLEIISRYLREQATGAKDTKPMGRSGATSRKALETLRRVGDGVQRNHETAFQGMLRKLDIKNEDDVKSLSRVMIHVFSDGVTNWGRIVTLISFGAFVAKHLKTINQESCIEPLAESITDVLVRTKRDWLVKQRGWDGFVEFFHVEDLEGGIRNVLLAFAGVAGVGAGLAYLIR
Procedure: PIxEL: Protein-Protein Interaction in Permeabilized Cells by ELISA
Most MCL1 protein molecules are localized at the mitochondria outer membrane and sequester pro-apoptotic proteins through binding of their BCL2 homology domain 3 (BH3 domain). MEB buffer (150 mM mannitol, 10 mM HEPES pH 7.5, 50 mM KCl, 20 μM EDTA, 20 μM EGTA, 5 mM potassium succinate, 0.1% protease-free BSA (SIGMA) with low dose digitonin (0.002%) permeabilizes plasma membrane while leaves live mitochondria, where MCL1 maintains its native localization and conformation. Unlike biophysical assays (e.g. TR-FRET) that use truncated recombinant MCL1 protein, this assay uses full length endogenous MCL1 protein at mitochondria outer membrane. It measures the interaction between MCL1 protein and biotinylated BIM BH3 peptide. Compounds can compete with BIM BH3 peptide to bind to MCL1 protein.
On day 1, RKO colon cancer cell line cells were plated at 0.8 million cells/ml, 100 μl/well in 96-well flat bottom TC plates (Corning). […] Each plate was tapped to make sure liquid covering entire bottom of wells and incubate at 37° C. overnight.
On the second day, MCL1 antibody was washed from ELISA plate. 250 μl Odyssey® Blocking Buffer (PBS) (Li-Cor) was added to each well, incubated at room temperature for at least 1 hour, then washed once with 250 μl 1×PBST. Plates with RKO cells were gently washed once with 100 μl/well PBS, once with 100 μl/well MEB buffer without digitonin, then 100 μl of MEB buffer with 0.002% digitonin was gently added to each well. Compounds were added with HP Tecan compound dispenser in 3-fold dilution series, highest dose 30 μM, 10-dose per compound in quadruplicates. Biotin-BIM peptide (synthesized by 21st Century) was added with HP Tecan compound dispenser at 0.2 μM immediately after the addition of compounds. Plates were rocked for 1 h at room temperature. Then MEB buffer was aspirated and 50 μl of CHAPS buffer (50 mM Tris-Cl, pH 7.4, 150 mM NaCl, 1% CHAPS, 1 mM EDTA, 1 mM EGTA, complete protease inhibitors (Roche), PhosSTOP (Roche)) was added to each well. Plates were rocked for 1 hour at 4° C., then 45 μl cell lysate from each well were transferred to ELISA plates coated with MCL1 antibody. Plates were incubated overnight in the cold room with rocking.
On the third day, ELISA plates were washed once with 250 μl 1×PBST. Streptavidin-poly-HRP (Thermo Fisher Scientific) was diluted to 20 ng/ml in Odyssey blocking buffer plus 0.05% Triton-100, and 100 μl was added to each well of the ELISA plate. Plates were incubated at RT for 1 hour with rocking, then washed with 100 μL 1×PBST for 3 times. Each SuperSignal ELISA Femto Maximum Sensitivity substrate was added to a 50-ml tube and mixed, then 100 μl of mixed substrate was added to each well. Plates were shaken for 1 minute then luminescence was measured by Envision plate reader […]. Signal of each well were normalized by no-compound control and no-cell control. IC50 was calculated using Graphic Pad PRISM software.

[2] = target: BCL-XL (Homo sapiens, UniProt Q07817); assay: Protein-protein interaction assay BCL-XL/Bad BH3 peptide, TR-FRET (BCL-XL assay, Assay 2); format: binding; conditions: His-BCL-XL / Bad BH3 peptide, median
Chain of BCL-XL (Q07817 1-212): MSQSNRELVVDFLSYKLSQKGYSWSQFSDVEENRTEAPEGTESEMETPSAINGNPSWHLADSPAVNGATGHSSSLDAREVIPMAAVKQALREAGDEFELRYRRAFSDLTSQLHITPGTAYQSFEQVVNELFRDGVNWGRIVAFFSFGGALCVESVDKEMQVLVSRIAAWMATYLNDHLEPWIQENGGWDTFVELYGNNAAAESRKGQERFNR

[3] = system: AMO-1; assay: Anti-proliferative effect in AMO-1 cells, CellTiter-Glo (Assay 7); format: cell-based
In short: (§1)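 Cells plated and incubated overnight at 37° C, then exposed to compound for 72 hours. Viability read as CellTiter-Glo luminescence, with a day 0 plate as time-zero reference. IC50 calculated with day 0 values and DMSO control values as references.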

[4] = target: MCL-1 (Homo sapiens, UniProt Q07820, K194A/K197A/R201A); assay: Protein-compound interaction assay, surface plasmon resonance (SPR assay, Assay 8); format: binding; conditions: geometric mean; for Kd: KD [M]
Chain of MCL-1 (Q07820 173-321 K194A/K197A/R201A, looked up): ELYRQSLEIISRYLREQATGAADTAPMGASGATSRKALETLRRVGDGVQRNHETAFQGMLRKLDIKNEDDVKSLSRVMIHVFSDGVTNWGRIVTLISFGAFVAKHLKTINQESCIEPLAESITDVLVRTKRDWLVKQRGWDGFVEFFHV

[5] = system: HMC-1-8; assay: Anti-proliferative effect in HMC-1-8 cells, CellTiter-Glo (Assay 7); format: cell-based
Procedure: (§2) Assessment of the Anti-Proliferative Effect of Compounds in Different Cell Lines
(§3) The impact of compounds on the proliferation of different cell lines was assessed using the CellTiter-Glo® Luminescent Cell Viability reagent from Promega (G7573).
(§4) In parallel, cells were plated in a reference (day 0) plate for time zero determination. Cells were incubated in a humidified incubator at 37° C. overnight.
(§5) Rim wells were excluded. The cells were incubated for 72 hours in a humidified incubator at 37° C. The day 0 plate was measured by adding 30 μL/well of CTG solution (CellTiter-Glo® Luminescent Cell Viability reagent, Promega G7573) to time zero wells in the reference plate followed by a 10 minutes incubation and luminescence reading at 0.1 ms. using the PHERAstar FS microplate reader (BMG Labtech).
(§6) After 72 hours incubation, the treated plates were measured in the same way as the day 0 plate mentioned above. The Bella DRC Master Sheet was used to calculate IC50s, with CI=day 0 values and C0=DMSO control values.

[6] = system: A2780; assay: Anti-proliferative effect in A2780 cells, CellTiter-Glo (Assay 7); format: cell-based; conditions: A2780, 72 hours incubation, CellTiter-Glo; several values per example; read-out: Antiproli A2780
In short: as §1

[7] = system: SUDHL10; assay: Anti-proliferative effect in SUDHL10 cells, CellTiter-Glo (Assay 7); format: cell-based; conditions: median, read-out: Antiproli SUDHL10 [M] (median)
Procedure: as §2, §3, §4, §5, §6

[8] = read-out: Antiproli AMO-1; AMO-1, 72 hours incubation, CellTiter-Glo; several values per example
[9] = SPR, immobilized MBP-MCL-1, 25° C.
[10] = read-out: Antiproli HMC-1-8, HMC-1-8, 72 hours incubation
[11] = AMO-1, 72 hours incubation, CellTiter-Glo; several values per example; read-out: Antiproli AMO-1
[12] = median, read-out: PIxEL [M] (median)

| SMILES | IC50 ([1]; PIxEL [M] (median)) | IC50 [2] [nM] | pIC50 [3, 8] | Kd [4, 9] [M] | pIC50 [5, 10] | pIC50 [6] | pIC50 [3, 11] | koff [4, 9] [s⁻¹] | kon [1/M 1/s] [4, 9] | IC50 ([7]; SUDHL10, 72 hours incubation) [M] | IC50 [1, 12] [M] | further results |
| --- | --- | --- | --- | --- | --- | --- | --- | --- | --- | --- | --- | --- |
| CCc1c2c(nn1C)COCc1ccccc1Cn1c(C(=O)O)c(CCCOc3cccc4cc(F)ccc34)c3ccc(Cl)c-2c31 (single isomer, unassigned; enantiomer 1) [Example 55, (−)-3-Chloro-4-ethyl-17-{3-[(6-fluoronaphthalen-1-yl)oxy]propyl}-5-methyl-5,7,9,14-tetrahydro-indolo[7,1-fg]pyrazolo[3,4-d][2,8]benzoxazacycloundecine-16-carboxylic Acid N-ethylethanamine Salt (Enantiomer 1)] | 3.11e-07 | > 20000 | 5.92 | 3.9e-09 | 5.62 |  |  |  |  |  |  |  |
| Cc1c2c(nn1C)COCc1ccccc1Cn1c(C(=O)O)c(CCCOc3cccc4cc(F)ccc34)c3ccc(Cl)c-2c31 (single isomer, unassigned; enantiomer 2) [Example 50, (+)-3-Chloro-17-{3-[(6-fluoronaphthalen-1-yl)oxy]propyl}-4,5-dimethyl-5,7,9,14-tetrahydroindolo[7,1-fg]pyrazolo[3,4-d][2,8]benzoxazacycloundecine-16-carboxylic acid-N-ethylethanamine Salt (Enantiomer 2)] | 1.69e-06 |  |  | 3.8e-09 |  | 4.93 and 5.06 | 5.55 | 0.0061 | 1.6E6 1/M 1/s | 1.2e-06 |  |  |
| CCc1c2c(nn1C)COCc1ccccc1Cn1c(C(=O)O)c(CCCOc3cccc4cc(F)ccc34)c3ccc(Cl)c-2c31 (single isomer, unassigned; enantiomer 2) [Example 56, (+)-3-Chloro-4-ethyl-17-{3-[(6-fluoronaphthalen-1-yl)oxy]propyl}-5-methyl-5,7,9,14-tetrahydro-indolo[7,1-fg]pyrazolo[3,4-d][2,8]benzoxazacycloundecine-16-carboxylic Acid N-ethylethanamine Salt (Enantiomer 2)] | 2.35e-06 |  | 5.38 |  | 4.96 |  |  |  |  |  |  |  |
| Cc1c2c(nn1C)COCc1ccccc1Cn1c(C(=O)O)c(CCCOc3cccc4cc(F)ccc34)c3ccc(Cl)c-2c31 (single isomer, unassigned; enantiomer 1) [Example 49, (−)-3-Chloro-17-{3-[(6-fluoronaphthalen-1-yl)oxy]propyl}-4,5-dimethyl-5,7,9,14-tetrahydroindolo[7,1-fg]pyrazolo[3,4-d][2,8]benzoxazacycloundecine-16-carboxylic acid-N-ethylethanamine Salt (Enantiomer 1)] | 7.88e-07 | > 20000 |  | 3e-09 |  | 5.12 and 5.28 |  |  |  |  |  | pIC50 ([3]; Homo sapiens, AMO1, 72 h, AMO-1, 72 hours incubation, CellTiter-Glo; several values per example; read-out: Antiproli AMO-1): 5.72; koff ([4]; read-out: koff [1/s], SPR, immobilized MBP-MCL-1, 25° C.): 0.0058 s⁻¹; kon ([4]; read-out: kon [1/M 1/s], SPR, immobilized MBP-MCL-1, 25° C.): 1.9e+06 M⁻¹ s⁻¹; IC50 ([7]; Homo sapiens, SU-DHL10, SUDHL10, 72 hours incubation): 1.2e-06 M |
| CCNCC.Cc1c2c(nn1C)COCc1ncccc1Cn1c(C(=O)O)c(CCCOc3cccc4ccccc34)c3ccc(Cl)c-2c31 (single isomer, unassigned; enantiomer 1) [Example 43, 3-Chloro-4,5-dimethyl-17-[3-(naphthalen-1-yloxy)propyl]-5,7,9,14-tetrahydropyrazolo-[4′,3′:9,10]pyrido[2′,3′:3,4][1,6]oxazacycloundecino[8,7,6-hi]indole-16-carboxylic acid-N-ethylethanamine Salt (Enantiomer 1)] |  | > 20000 |  |  |  | 4.63 | 5.29 and 5.13 | 0.0096 | 5.6E6 1/M 1/s | 1.5e-06 | 2.97e-06 | pKd ([4]; SPR, immobilized MBP-MCL-1, 25° C., read-out: KD): 8.77 |
| CCc1nn(C)c2c1-c1c(Cl)ccc3c(CCCOc4cccc5cc(F)ccc45)c(C(=O)O)n(c13)Cc1ccccc1COC2 (single isomer, unassigned; enantiomer 1) [Example 58, (+)-3-Chloro-4-ethyl-17-{3-[(6-fluoronaphthalen-1-yl)oxy]propyl}-6-methyl-6,7,9,14-tetrahydro-indolo[7,1-fg]pyrazolo[3,4-d][2,8]benzoxazacycloundecine-16-carboxylic acid-N-ethylethanamine Salt (Enantiomer 1)] |  | 17300 |  |  |  |  | 5.79 |  |  |  | 8.34e-07 | pIC50 ([5]; HMC-1-8, 72 hours incubation, read-out: Antiproli HMC-1-8): 5.41 |
